# Experimental data published in patent US20070054868A1, “Synergistic polyphenol compounds, compositions thereof, and uses thereof” (The Trustees of Columbia University in the City of New York, priority 2005, published 2007).
# What was measured:
# FHC = experiment: Growth inhibition IC50 against normal fetal colon cell line; type: cell-based, human; conditions: conclusion from Table 4
# Excerpt: Cell lines and cell culture. The Caco2, HCT116, HT29, SW480, and SW837 human colorectal cancer cell lines and the FHC normal human fetal colon cell line were obtained from American Type Culture Collection (Manassas, Va.). All cell lines were maintained in DF10 medium containing DMEM (Invitrogen, San Diego, Calif.) supplemented with 10% fetal bovine serum (Invitrogen). The FHC cell line was originally established from the colon of a human fetus at 13 weeks of gestation and has an epithelial morphology. Cells were cultured in an incubator with humidified air at 37° C. with 5% CO2. As an untreated solvent control, cells were treated with DMSO (Sigma Chemical Co., St. Louis, Mo.) at a final concentration of <0.1%. […] Cells to be tested against were plated onto 96-well plates (3×10^3 cells/well) and twenty-four hours later, the cells were treated with an illustrative Synergistic Polyphenol Composition, or one or more illustrative Synergistic Polyphenol Compounds. Neither the medium nor the test compounds were changed during this time period. The assay was done in triplicate. […] The medium and test compounds were not changed during this time period. As a control, the cells were treated with 0.1% DMSO. […] The numbers of cells in replica plates were then determined using a Coulter Counter (Beckman Coulter Co., Fullerton, Calif.) as described in Shimizu et al., Clin. Cancer Res. 2004: 10:1130-40.
# p-HER3 = experiment: Immunoprecipitation and western blot analysis in SW837 cells; type: cell-based, human
# Excerpt: Total cellular protein was extracted and equivalent amounts of protein can be determined by western blot analysis using the methods described in Suzui, et al., Cancer Res., 62:3997-4006 (2002). The primary antibodies for several proteins are described in Masuda et al., Clin Cancer Res., 7:4220-4229 (2001); Masuda et al., Clin Cancer Res., 9:3486-3491 (2003); and Shimizu et al., Clin Cancer Res., 11:2735-2746 (2005). The primary antibodies for HER3 (2F12) and COX-2 (PG27) were purchased from Upstate Cell Signaling Solutions (Charlottesville, Va.) and Oxford Biochemical Research (Oxford, Mich.), respectively. To examine the levels of expression of the phosphorylated (i.e. activated) form of the HER3 protein (p-HER3), cellular lysates (1 mg/mL) were incubated with 4 μg anti-HER3 antibody overnight at 4° C. with slow agitation, and immune complexes were then precipitated by adding protein A/G agarose (sc-2003, Santa Cruz Biotechnology, Santa Cruz, Calif.). After incubating for 2 hours at 4° C., the beads were washed with lysis buffer, and bound proteins were eluted into the sample buffer and subjected to western blot analysis, as described above. The p-HER3 protein was then detected by using an anti-phospho-tyrosine antibody (PY-20-HRP, BD Transduction Laboratories, San Diego, Calif.). An antibody to actin was used as a loading control. […]
# PGE2 = PGE2 production assay (EIA) in SW837 cells; type: cell-based, human; conditions: 10, 20 or 40 μg/mL, 18 hours, 20 μM arachidonic acid
# Description: SW837 human colon cancer cells were plated into 35-mm dishes and grown to 60% confluence. The cells were then treated with EGCG (0, 10, 20, or 40 μg/mL) in serum minus medium containing 20 μM arachidonic acid (Sigma) for 18 hours. The cell free medium was then collected and the amounts of PGE2 released by cells into the medium were measured using an EIA kit (Cayman Chemicals, Ann Arbor, Mich.), according to the manufacturer's instructions. Production of PGE2 was normalized to the protein concentration of the cells.
# IGF-1 protein = experiment: Western blot analysis for IGF in SW837 cells; type: cell-based, human
# Excerpt: (§1) Total cellular protein was extracted and equivalent amounts of protein were examined by western blot analysis, as described above in Example 6. Cell lysates were separated by SDS-PAGE using 7.5 to 15% polyacrylamide gels and transferred onto Immobilon-P transfer membranes (Millipore Co., Bedford, Mass.). The primary antibodies for IGF-1R[…](#3022) and p-IGF-1R (#3021) were purchased from Cell Signaling Technology (Beverly, Mass.). The primary antibodies for IGF-1R[…](sc-713) and IGFBP-3 (sc-6003) were purchased from Santa Cruz Biotechnology (Santa Cruz, Calif.). The primary antibodies for IGF-1 (clone Sm1.2) and actin (A2066) were purchased from Upstate Cell Signaling Solutions (Charlottesville, Va.) and Sigma Chemical Co. (St Louis, Mo.), respectively. An antibody to actin was used as a loading control. Anti-mouse IgG (Amersham Pharmacia Biosciences, Piscataway, N.J.), anti-rabbit IgG (Amersham Pharmacia Biosciences), or anti-goat IgG (Santa Cruz Biotechnology) antibodies were used as the secondary antibodies. Each membrane was developed using an ECL-enhanced chemiluminescence system (Amersham Biosciences).
# IGFBP-3 protein = experiment: Western blot analysis for IGF in SW837 cells; type: cell-based, human
# Excerpt: as §1
# p-IGF-1R = experiment: Western blot analysis for IGF in SW837 cells; type: cell-based, human; conditions: 20 μg/mL, within 6 hours
# Excerpt: as §1
# IGF-1R proteins = experiment: Western blot analysis for IGF in SW837 cells, total receptor; type: cell-based, human; conditions: 20 μg/mL, during the time course
# Excerpt: as §1
# HT29 cells = experiment: Incorporation of DilC16 into the plasma membrane after pretreatment; type: cell-based, human; conditions: HT29 pretreated with test substance
# EGFR = target: T1, EGFR (Homo sapiens, UniProt P00533); experiment: Binding of Alexa 488-labeled EGF to the cell surface receptor; conditions: HT29 cells pre-treated with test substance
# T1 construct: endogenous in cells; host or cells: HT29 colon cancer cells
# Description: These effects were detected with as little as […] of EGCG, and within 5 minutes. Phosphorylation of EGFR, ERK1, ERK2, and AKT were suppressed in cells treated with methyl-β-cyclodextrin, which depletes plasma membrane cholesterol. […] In addition, the inhibitory effect of EGCG on phosphorylation of EGFR was not blocked by the addition of cholesterol on the growth medium. These findings provide evidence that EGCG can alter membrane domain organization in colon cancer cells ant that this is not due to cholesterol depletion. It was noted that pre-treatment of the cells with EGCG or Poly E inhibited the binding of Alexa 488-labeled EGF to the cell surface receptor EGFR.
# [1] = obtained in a clinical study; value said to be in the range of the peak; cited from earlier work
substance,measurement,setting,value
(−)-epigallocatechin gallate,growth inhibition of colorectal cancer cells relative to FHC normal cells,FHC,preferentially inhibit
same,levels of the p-HER3 protein,"p-HER3; 1.0 μg/mL, 96 hours",decrease
same,levels of the p-HER3 protein,"p-HER3; 20 μg/mL, within 6 hours",marked decrease
same,levels of PGE2,PGE2,decrease
same,levels of the IGF-1 protein,"IGF-1 protein; 1.0 μg/mL, 96 hours",decrease
same,levels of the IGF-1 protein,"IGF-1 protein; 20 μg/mL, at 12 hours",moderate decrease
same,levels of the IGF-1 protein,"IGF-1 protein; 20 μg/mL, at 24 hours",marked decrease
same,level of the IGFBP-3 protein,"IGFBP-3 protein; 1.0 μg/mL, 96 hours",increase
same,level of the IGFBP-3 protein,"IGFBP-3 protein; 20 μg/mL, at 6 hours, persisted for at least 48 hours",marked increase
same,levels of the p-IGF-1R protein,p-IGF-1R,marked decrease
same,levels of the IGF-1R proteins (total),IGF-1R proteins,no significant changes
same,subsequent incorporation of DilC16 into the plasma membrane,HT29 cells,inhibit
same,binding of Alexa 488-labeled EGF to the cell surface receptor EGFR,EGFR,inhibited
same,peak plasma concentration,[1],~1.0 µg/mL
